Patent US4230846A, “1,5-Carbamates of fortimicin B and derivatives” (Abbott Laboratories, priority 1979, dated 1980)
Structures can show the parent of a compound that is named as a salt. Where two headings read alike, the source gives them in different places. Blank lines part the entries; values can stand above or below the compound they belong to.

What was measured:
[1] = test system: Psuedo. aeruginosa KY 8516; experiment: In vitro antimicrobial activity, 2-fold agar dilution; type: cell-based
Protocol: (§1) 21, 1977. The in vitro activity of 2-deoxyfortimicin As set forth in Table I. The in vitro activity of 2-deoxyfortiicin A tetrahydrochloride, fortimicin A disulfate and fortimicin A tetrahydrochloride were determined using a 2-fold agar dilution method using 10 ml per petri plate of Mueller-Hinton agar. The agar was inoculated with one loopful (0.001 ml/loop) of a 1:10 dilution of a 24 hour broth culture of the indicated test organism and incubated at 37° C. for 24 hours.

E coli 76-2 = experiment: as above; type: cell-based; conditions: Mueller-Hinton agar, 37° C., 24 hours
Protocol: as §1

Compound: COC1C(O)C(N)C(OC2OC(C(C)N)CCC2N)C(O)C1N(C)C(=O)CN (centres unmarked) [Fortimicin A disulfate, fortimicin A disulfate]
MIC ([1]; 24 h, read-out: Minimum inhibitory concentration, Psuedo. aeruginosa KY 8516, Mueller-Hinton agar, 37° C.): 50 µg/mL

Compound: COC1C(O)C(N)C(OC2OC(C(C)N)CCC2N)C(O)C1N(C)C(=O)CN (centres unmarked) [Fortimicin A tetrahydrochloride, fortimicin A tetrahydrochloride]
Minimum inhibitory concentration (E coli 76-2): 3.1 µg/mL
Minimum inhibitory concentration ([1]; Psuedo. aeruginosa KY 8516, Mueller-Hinton agar, 37° C., 24 hours): 100 µg/mL

MIC (E coli 76-2; read-out: Minimum inhibitory concentration): 3.1 µg/mL
MIC ([1]; Psuedo. aeruginosa KY 8516, Mueller-Hinton agar, 37° C., 24 hours, read-out: Minimum inhibitory concentration): 50 µg/mL
Compound: COC1CC(N)C(OC2OC(C(C)N)CCC2N)C(O)C1N(C)C(=O)CN (centres unmarked) [2-deoxyfortimicin A tetrahydrochloride]
